Laboratory results from publication PMC9675574 (JCI Insight, 2022).
Read-outs that look alike come from different tables or passages of the source.

Experiments:
Assay type in all cases: biochemical
[1] = target: T1, human trypsin isoform PRSS2 (anionic trypsin), recombinant (Homo sapiens, UniProt P07478); test: Competitive inhibition kinetics of trypsin, GPR-pNA substrate; details: for Km / kcat: GPR-pNA, 24°C; for Ki: mean ± SD, n = 3
T1 construct: made in house; host or cells: Escherichia coli BL21(DE3)
T1 sequence (P07478 24-247): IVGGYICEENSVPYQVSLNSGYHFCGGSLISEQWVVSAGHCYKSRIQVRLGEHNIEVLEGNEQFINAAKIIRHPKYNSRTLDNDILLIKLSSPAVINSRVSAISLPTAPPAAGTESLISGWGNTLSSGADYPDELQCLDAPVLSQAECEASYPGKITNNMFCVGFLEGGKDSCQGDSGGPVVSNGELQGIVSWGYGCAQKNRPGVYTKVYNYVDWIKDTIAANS
Protocol: (§1) Recombinant human and mouse trypsinogens were expressed in Escherichia coli BL21(DE3) (Invitrogen), refolded in vitro, and purified by ecotin affinity chromatography (Pharmacia FPLC), according to published protocols ([60], [63], [64]). Sulfated human trypsinogens were purified from archived samples of human pancreatic juice, as described previously, with minor modifications ([65], [66]). Briefly, 50 mg freeze-dried pancreatic juice was dissolved in 2 mL 10 mM HCl, clarified by centrifugation (21,000g, 5 minutes, 4°C), and loaded onto a MonoQ 5/50 GL column equilibrated with 20 mM Tris-HCl (pH 8.0). Proteins were eluted with a 0–0.5 M NaCl gradient at 1 mL/min flow rate for 30 minutes. The fractions containing the cationic and anionic trypsinogens were further purified with ecotin affinity chromatography. The concentration of trypsinogen preparations was estimated from their UV absorbance at 280 nm using the extinction coefficients reported previously for mouse trypsinogens ([64]) and 37,525, 38,890, and 41,535/M/cm for human cationic trypsinogen (PRSS1), anionic trypsinogen (PRSS2), and mesotrypsinogen (PRSS3), respectively. To activate trypsinogen to trypsin, approximately 1 μM solution was incubated at 37°C with 28.2 ng/mL human enterokinase (final concentration) in 0.1 M Tris-HCl (pH 8.0), 10 mM CaCl2, and 0.05% Tween 20 for 1 hour. The activation reaction was followed by measuring trypsin activity: 2 μL trypsin was diluted in 48 μL assay buffer [0.1 M Tris-HCl (pH 8.0), 1 mM CaCl2, and 0.05% Tween 20], and 150 μL of 200 μM GPR-pNA trypsin substrate (in assay buffer) was added. Substrate cleavage resulting in the release of the yellow p-nitroaniline was monitored for 1 minute in a Spectramax Plus 384 microplate reader at 405 nm.
(§2) Michaelis-Menten kinetic parameters of trypsin isoforms were determined with the chromogenic substrate GPR-pNA at 24°C. The trypsin concentration was 1 nM and the substrate concentration was varied typically between 1.56 and 200 μM in a final volume of 200 μL assay buffer. The substrate concentration range was 3.1–400 μM for mouse trypsin isoform T7 and 0.4–50 μM for mouse trypsin isoform T20. Km and kcat values were calculated from hyperbolic fits to plots of reaction velocity versus substrate concentration.
(§3) Michaelis-Menten kinetic parameters were then measured after adding 100 μL trypsin substrate, as described above. […] To determine the Ki, the Km values were plotted as a function of the inhibitor concentration, and the Ki was calculated by dividing the y axis intercept with the slope of the linear fit. This value corresponds to the negative of the x axis intercept. Alternatively, the substrate saturation curves obtained in the absence and presence of the increasing inhibitor concentrations were globally fitted to the competitive inhibition equation y = vmax × (x/[KmObs+ x]), where y is the reaction velocity, vmax is the maximal velocity, x is the substrate concentration, and KmObs = Km × (1 + [I]/Ki), where [I] is the inhibitor concentration. Experiments were performed 3 times and each experiment was analyzed separately. […] Kinetic analysis was performed with the Prism 8 program (GraphPad).

[2] = target: T2, mouse trypsin isoform T20 (anionic trypsin) (Mus musculus, UniProt P07146); test: as above; details: for Km / kcat: GPR-pNA, 24°C; for Ki: mean ± SD, n = 3
T2 construct: made in house; host or cells: Escherichia coli BL21(DE3)
T2 sequence (P07146 24-246): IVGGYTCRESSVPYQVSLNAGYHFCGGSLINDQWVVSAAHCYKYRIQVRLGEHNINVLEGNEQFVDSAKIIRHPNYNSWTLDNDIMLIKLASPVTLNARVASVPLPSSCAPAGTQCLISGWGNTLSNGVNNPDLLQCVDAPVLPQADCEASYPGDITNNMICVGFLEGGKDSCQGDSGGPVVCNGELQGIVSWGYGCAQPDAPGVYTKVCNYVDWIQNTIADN
Protocol: as §1, §2, §3

[3] = target: T3, sulfated human trypsin PRSS1-SO4 purified from pancreatic juice (Homo sapiens, UniProt P07477); test: as above; details: for Km / kcat: GPR-pNA, 24°C; for Ki: mean ± SD, n = 3
T3 construct: from tissue; host or cells: human pancreatic juice
Protocol: as §1, §2, §3

[4] = target: T4, human trypsin isoform PRSS1 (cationic trypsin), recombinant (Homo sapiens, UniProt P07477); test: as above; details: for Km / kcat: GPR-pNA, 24°C; for Ki: mean ± SD, n = 3
T4 construct: made in house; host or cells: Escherichia coli BL21(DE3)
Protocol: as §1, §2, §3

[5] = target: T5, sulfated human trypsin PRSS2-SO4 purified from pancreatic juice (Homo sapiens, UniProt P07478); test: as above; details: for Km / kcat: GPR-pNA, 24°C; for Ki: mean ± SD, n = 3
T5 construct: from tissue; host or cells: human pancreatic juice
T5 sequence (P07478 24-247): as the sequence (P07478 24-247) above
Protocol: as §1, §2, §3

[6] = target: mouse trypsin isoform T8 (anionic trypsin) (Mus musculus, UniProt Q9R0T7); test: biochemical; details: for Km / kcat: GPR-pNA, 24°C
mouse trypsin isoform T8 (anionic trypsin), sequence (Q9R0T7 24-246): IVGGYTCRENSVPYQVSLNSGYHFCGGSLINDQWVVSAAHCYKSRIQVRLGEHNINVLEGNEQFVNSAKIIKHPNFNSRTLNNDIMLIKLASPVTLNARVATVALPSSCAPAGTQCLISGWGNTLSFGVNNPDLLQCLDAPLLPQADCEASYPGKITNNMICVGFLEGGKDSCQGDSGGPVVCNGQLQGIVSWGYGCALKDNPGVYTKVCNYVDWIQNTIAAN
Protocol: as §1, §2, §3

[7] = target: mouse trypsin isoform T9 (anionic trypsin) (Mus musculus, UniProt Q9QUK9); test: biochemical; details: for Km / kcat: GPR-pNA, 24°C; for Ki: mean ± SD, n = 3
mouse trypsin isoform T9 (anionic trypsin), sequence (Q9QUK9 24-246): as the sequence (Q9R0T7 24-246) above, with V12I, S44T, N218D counted along it
Protocol: as §1, §2, §3

[8] = target: mouse trypsin isoform T7 (cationic trypsin) (Mus musculus, UniProt Q9CPN9); details: GPR-pNA, 24°C
mouse trypsin isoform T7 (cationic trypsin), sequence (Q9CPN9 entry or part of it): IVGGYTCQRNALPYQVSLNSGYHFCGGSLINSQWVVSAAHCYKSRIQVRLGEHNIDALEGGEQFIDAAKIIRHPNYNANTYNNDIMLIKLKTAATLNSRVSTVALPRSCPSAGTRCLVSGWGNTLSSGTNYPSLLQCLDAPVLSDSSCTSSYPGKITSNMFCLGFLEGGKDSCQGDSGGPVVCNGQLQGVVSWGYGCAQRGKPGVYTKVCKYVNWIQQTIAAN
Protocol: as §1, §2, §3

With [H]/N=C(/N)c1ccc(NCc2nc3cc(C(=O)N(CCC(=O)O)c4ccccn4)ccc3n2C)cc1 [dabigatran] the Km ([1]; 25 nM dabigatran) was 23 ± 1.3 µM, the kcat ([1]; 25 nM dabigatran) was 90.6 ± 2.6 per second and the Km ([1]; 50 nM dabigatran) was 37.6 ± 0.6 µM. It also gave a kcat ([1]; 50 nM dabigatran) of 89.1 ± 1.7 per second, a Km ([1]; 75 nM dabigatran) of 46.8 ± 1.5 µM and a kcat ([1]; 75 nM dabigatran) of 90.2 ± 2.3 per second. For the same molecule, the Km ([1]; 100 nM dabigatran) was 61.1 ± 6.1 µM, the kcat ([1]; 100 nM dabigatran) was 87.5 ± 4.4 per second and the Ki ([1]; Ki dabigatran, Global fit) was 0.0141 ± 0.0011 µM. For the same molecule, the Ki ([1]; Ki dabigatran, Individual fit) was 0.0179 ± 0.0033 µM, the Km ([2]; 50 nM dabigatran) was 9.5 ± 1.3 µM and the kcat ([2]; 50 nM dabigatran) was 52 ± 4 per second. For the same molecule, the Km ([2]; 100 nM dabigatran) was 19.5 ± 0.5 µM, the kcat ([2]; 100 nM dabigatran) was 51.1 ± 1.7 per second and the Km ([2]; 150 nM dabigatran) was 22.5 ± 2.5 µM. For the same molecule, the kcat ([2]; 150 nM dabigatran) was 48.7 ± 3.3 per second, the Km ([2]; 200 nM dabigatran) was 28.5 ± 2.2 µM and the kcat ([2]; 200 nM dabigatran) was 50 ± 6.3 per second. For the same molecule, the Ki ([2]; Ki dabigatran, Global fit) was 0.0226 ± 0.0007 µM, the Km ([3]; 25 nM dabigatran) was 21.4 ± 1.5 µM and the kcat ([3]; 25 nM dabigatran) was 101 ± 2.3 per second. The Km ([3]; 50 nM dabigatran) was 32.7 ± 3 µM, the kcat ([3]; 50 nM dabigatran) was 105.5 ± 5.1 per second and the Km ([3]; 75 nM dabigatran) was 42.8 ± 7.8 µM. The kcat ([3]; 75 nM dabigatran) was 103.2 ± 4.2 per second, the Km ([3]; 100 nM dabigatran) was 57 ± 2.1 µM and the kcat ([3]; 100 nM dabigatran) was 104.7 ± 2.1 per second. The Ki ([3]; Ki dabigatran, Global fit) was 0.0233 ± 0.002 µM, the Km ([4]; 25 nM dabigatran) was 31.3 ± 3.6 µM and the kcat ([4]; 25 nM dabigatran) was 90.8 ± 2.8 per second. For the same molecule, the Km ([4]; 50 nM dabigatran) was 50.2 ± 2.5 µM, the kcat ([4]; 50 nM dabigatran) was 91.6 ± 4.8 per second and the Km ([4]; 75 nM dabigatran) was 71.1 ± 4.2 µM. The kcat ([4]; 75 nM dabigatran) was 95 ± 2.3 per second, the Km ([4]; 100 nM dabigatran) was 88.7 ± 3.1 µM and the kcat ([4]; 100 nM dabigatran) was 99.8 ± 3.3 per second. For the same molecule, the Ki ([4]; Ki dabigatran, Global fit) was 0.0282 ± 0.0045 µM, the Ki ([4]; Ki dabigatran, Individual fit) was 0.021 ± 0.0023 µM and the Km ([5]; 25 nM dabigatran) was 13 ± 0.5 µM. For the same molecule, the kcat ([5]; 25 nM dabigatran) was 63.4 ± 0.4 per second, the Km ([5]; 50 nM dabigatran) was 23.5 ± 1.3 µM and the kcat ([5]; 50 nM dabigatran) was 66.8 ± 1.6 per second. It also gave a Km ([5]; 75 nM dabigatran) of 31.5 ± 0.4 µM, a kcat ([5]; 75 nM dabigatran) of 63.8 ± 0.9 per second and a Km ([5]; 100 nM dabigatran) of 42.4 ± 3.5 µM. The kcat ([5]; 100 nM dabigatran) was 67.2 ± 1.9 per second, the Ki ([5]; Ki dabigatran, Global fit) was 0.0103 ± 0.0005 µM and the Ki ([5]; Ki dabigatran, Individual fit) was 0.01 ± 0.0032 µM. It also gave a Ki [6] of 0.0316 ± 0.0026 µM, a Km ([6]; 50 nM dabigatran) of 20.6 ± 1.5 µM and a kcat ([6]; 50 nM dabigatran) of 90.4 ± 1 per second. The Km ([6]; 100 nM dabigatran) was 34.2 ± 4.1 µM, the kcat ([6]; 100 nM dabigatran) was 92.3 ± 1.6 per second and the Km ([6]; 150 nM dabigatran) was 46.3 ± 3 µM. The kcat ([6]; 150 nM dabigatran) was 88.9 ± 1.3 per second, the Km ([6]; 200 nM dabigatran) was 60.8 ± 4 µM and the kcat ([6]; 200 nM dabigatran) was 85.1 ± 7.2 per second. The Km ([7]; 50 nM dabigatran) was 19.8 ± 2.7 µM, the kcat ([7]; 50 nM dabigatran) was 75.8 ± 2 per second and the Km ([7]; 100 nM dabigatran) was 28.3 ± 2.8 µM. For the same molecule, the kcat ([7]; 100 nM dabigatran) was 72.5 ± 2.6 per second, the Km ([7]; 150 nM dabigatran) was 46.1 ± 2.4 µM and the kcat ([7]; 150 nM dabigatran) was 78.4 ± 0.1 per second. It also gave a Km ([7]; 200 nM dabigatran) of 56.7 ± 7.3 µM, a kcat ([7]; 200 nM dabigatran) of 77.6 ± 2.5 per second and a Ki ([7]; Ki dabigatran, Global fit) of 0.0358 ± 0.0035 µM. The Ki ([7]; Ki dabigatran, Individual fit) was 0.0284 ± 0.0071 µM, the kcat ([8]; 100 nM dabigatran) was 47.5 ± 2 per second and the kcat ([8]; 150 nM dabigatran) was 50.1 ± 1.5 per second. The kcat ([8]; 200 nM dabigatran) was 49.3 ± 1.7 per second.

N=C(N)c1ccccc1 [benzamidine] gave a kcat ([1]; 25 μM benzamidine) of 78.7 ± 1.7 per second, a kcat ([1]; 50 μM benzamidine) of 78.4 ± 1.8 per second and a kcat ([1]; 75 μM benzamidine) of 82.1 ± 2.4 per second. For the same molecule, the kcat ([1]; 100 μM benzamidine) was 78.3 ± 4.5 per second, the Ki ([1]; Ki benzamidine, Global fit) was 8.9 ± 0.7 µM and the Ki ([1]; Ki benzamidine, Individual fit) was 8.6 ± 2.2 µM. The kcat ([2]; 12.5 μM benzamidine) was 65 ± 1 per second, the kcat ([2]; 25 μM benzamidine) was 62.1 ± 1.8 per second and the kcat ([2]; 37.5 μM benzamidine) was 64.7 ± 2.1 per second. The kcat ([2]; 50 μM benzamidine) was 65.6 ± 2.1 per second, the Ki ([2]; Ki benzamidine, Global fit) was 7.6 ± 0.5 µM and the Ki ([2]; Ki benzamidine, Individual fit) was 6.9 ± 1.1 µM. For the same molecule, the kcat ([3]; 12.5 μM benzamidine) was 104.1 ± 2.8 per second, the kcat ([3]; 25 μM benzamidine) was 112.1 ± 4.9 per second and the kcat ([3]; 37.5 μM benzamidine) was 108.4 ± 5.3 per second. For the same molecule, the kcat ([3]; 50 μM benzamidine) was 113.6 ± 7.2 per second, the Ki ([3]; Ki benzamidine, Global fit) was 10.5 ± 0.9 µM and the Ki ([3]; Ki benzamidine, Individual fit) was 8.3 ± 2.2 µM. It also gave a kcat ([4]; 25 μM benzamidine) of 134.8 ± 1.7 per second, a kcat ([4]; 50 μM benzamidine) of 121 ± 3.3 per second and a kcat ([4]; 75 μM benzamidine) of 136.3 ± 9.2 per second. For the same molecule, the kcat ([4]; 100 μM benzamidine) was 143.2 ± 8.1 per second, the Ki ([4]; Ki benzamidine, Global fit) was 22.5 ± 4 µM and the Ki ([4]; Ki benzamidine, Individual fit) was 15.7 ± 4.7 µM. It also gave a kcat ([5]; 12.5 μM benzamidine) of 64.8 ± 1.6 per second, a kcat ([5]; 25 μM benzamidine) of 64.3 ± 1.4 per second and a kcat ([5]; 37.5 μM benzamidine) of 64.5 ± 1.5 per second. It also gave a kcat ([5]; 50 μM benzamidine) of 69.3 ± 0.3 per second, a Ki ([5]; Ki benzamidine, Global fit) of 4.2 ± 0.7 µM and a Ki ([5]; Ki benzamidine, Individual fit) of 3.3 ± 0.5 µM. It also gave a kcat ([6]; 12.5 μM benzamidine) of 103.9 ± 7.9 per second, a kcat ([6]; 25 μM benzamidine) of 105.6 ± 4.9 per second and a kcat ([6]; 37.5 μM benzamidine) of 100.2 ± 0.8 per second. It also gave a kcat ([6]; 50 μM benzamidine) of 105.5 ± 7 per second, a Ki ([6]; mean ± SD, n = 3) of 6.7 ± 1.3 µM and a kcat ([7]; 12.5 μM benzamidine) of 110 ± 3.4 per second. It also gave a kcat ([7]; 25 μM benzamidine) of 111.4 ± 2.8 per second, a kcat ([7]; 37.5 μM benzamidine) of 114.8 ± 2.8 per second and a kcat ([7]; 50 μM benzamidine) of 112.3 ± 4.5 per second. It also gave a Ki [7] of 6.8 ± 1 µM, a kcat ([8]; 12.5 μM benzamidine) of 125.4 ± 2.7 per second and a kcat ([8]; 25 μM benzamidine) of 125.5 ± 3.5 per second. The kcat ([8]; 37.5 μM benzamidine) was 135 ± 3.9 per second and the kcat ([8]; 50 μM benzamidine) was 127.9 ± 7.5 per second.
